Measurements from patent US5661156A, “Rapamycin derivatives” (SmithKline Beecham Corporation, priority 1995, dated 1997).

Legend:
[1] = system: Spleen cells from BDF1 female mice; assay: Mitogenesis Assay for Immunosuppressive Activity (concanavalin A, 3H-thymidine); type: cell-based; settings: BDF1 mouse spleen cells, Concanavalin A 5 μg/ml, 72 hours, 3H-thimidine last 18 hours
Procedure: (§1) Mitogenesis Assay for Immunosuppressive Activity
Spleen cells from BDF1 female mice were established in RPMI with 10% fetal calf serum at 5×10^6 /mL. One hundred […] of this suspension (5×10^5 cells) were dispensed into 96-well round-bottomed microtiter plates (Linbro, Flow Laboratories). Concanavalin A (5 μg/ml)was added as the mitogenic stimulus, and the final volume in the microtiter wells was adjusted to 200 μL with RPMI. Cell cultures were incubated for 72 hours at 37° C. in a 5% CO2 atmosphere and pulsed with 0.5 μCi ^3 H-thymidine (specific activity […]) for the last 18 hours of the 72 hour culture. The cells were harvested on an automated multiple sample harvester and cell-associated radioactivity counted in a Beckman liquid scintillation counter. The results are expressed as the mean values derived from quadruplicate measurements. Cell viability was determined by trypan blue exclusion after 72 hours of incubation. Compounds to be tested were added to the microtiter plates at the appropriate dilutions prior to the addition of cells.

Saccharomyces cerevisiae = assay: Assay for Antifungal Activity (zones of inhibition on agar); type: cell-based; settings: YPD agar wells, 48 hours
Procedure: Assay for Antifungal Activity
Yeast organism (Saccharomyces cerevisiae) in logarithmic growth were plated on complete agar medium (YPD). Compounds dissolved in an appropriate aqueous or organic solvent were placed in wells punched in the agar. Plates were incubated for 48 hours and zones of inhibition were measured.
as §1

Compound	IC50 [1] [nM]	Yeast IC12 (Saccharomyces cerevisiae) [ng/mL]
CO[C@H]1CCC[C@@H](C[C@@H](C)[C@@H]2CC(=O)[C@H](C)/C=C(\C)[C@@H](O)[C@@H](OC)C(=O)[C@H](C)C[C@H](C)/C=C/C=C/C=C(\C)[C@@H](OC)C[C@@H]3CC[C@@H](C)[C@@](O)(O3)C(=O)C(=O)N3CCCC[C@H]3C(=O)O2)C1 [Example 1, 43-Deshydroxyrapamycin]	0.5	
CO[C@H]1C[C@@H]2CC[C@@H](C)[C@](O)(CC(=O)N3CCCC[C@H]3C(=O)O[C@H]([C@H](C)C[C@@H]3CC[C@@H](O)[C@H](OC)C3)CC(=O)[C@H](C)/C=C(\C)[C@@H](O)[C@@H](OC)C(=O)[C@H](C)C[C@H](C)/C=C/C=C/C=C/1C)O2 [Example 3, 14-Deoxorapamycin]	15	
14-Desoxo-13-Methoxy-Rapamycin	1000	52
